Experimental data taken from patent US9212178B2, “Substituted pyrimidine compounds and their use as SYK inhibitors” (Genosco, priority 2013, dated 2015).
Like-named read-outs stand apart in the source and are kept apart here.

Legend:
[1] = target: full-length human SYK (Homo sapiens (Human), UniProt P43405); assay: Inhibition of enzymatic SYK kinase activity (LANCE Ulight TK peptide); assay type: biochemical
Protocol: Compounds of the present invention were assayed to measure their capacity to inhibit a spleen tyrosine kinase (SYK).
Compounds of the invention were initially diluted to 10 mM in 100% DMSO (CALBIOCHEM™) for storage and made into kinase buffer solution to create a compound concentration ranging from 1 uM and 10 uM. Serial dilutions of compounds of the invention were dispensed into a 96-well plate (GREINER BIOSCIENCES™) at 6 μL each. Purified full-length human SYK (CARNA BIOSCIENCES™) were diluted in kinase buffer and added to the compound solutions and pre-incubated for 30 minutes at room temperature. […] The reaction mixture was incubated for 1 hour. Following the incubation, the stop solution made with EDTA, water, and Lance detection buffer ([…]™) was added (12 μL each) to stop phosphorylation.

[2] = test system: THP-1 cells; assay: SYK-dependent TNF-α release assay (IgG stimulation), ELISA; assay type: cell-based; details: THP-1 cells on human IgG-coated plate, 18 hours; read-out: TNF-α release inhibition, IgG stimulation IC50
Protocol: In order to address cellular potency of Compounds of Formula (I), TNF-a production was measured on treatment of a series of concentration of SYK inhibitor in THP-1 cells.
For SYK-dependent TNF-α release assay (i.e., via IgG stimulation), THP-1 cells derived from human monocytic cells were obtained from the American Type Culture Collection (ATCC, Manassas, Va.). This cell line was maintained with a Roswell Park Memorial Institute (RPMI) medium (GIBCO) containing 10% fetal bovine serum (FBS; GIBCO) and 0.05 mM solution of 2-mercaptoethanol. The THP-1 cells were seeded at 1×10^5 cells/100 μL/well into human IgG (10 ng/well, INVITROGEN)-coated 96 well culture plate, and serially diluted compound was then added. After an 18 hours of incubation period at 37° C., supernatants were collected for the determination of the TNF-α level by enzyme-linked immunosorbent assay (ELISA), and the remaining cells were subjected to an MTT (yellow tetrazolium salt) assay to determine the cytotoxic effects of the compound. The IC50 value of the test compound was calculated at Gradpad Prism 5 unless otherwise specified.

[3] = ATP at Km (15 uM), 30 min pre-incubation

## Cc1nn(-c2nc(Nc3ccc4c(c3)c(C(=O)C(F)(F)F)cn4C)ncc2Cl)cc1CN1C[C@H](O)CO1 [Compound 17, (S)-1-(5-(5-chloro-4-(4-((4-hydroxyisoxazolidin-2-yl)methyl)-3-methyl-1H-pyrazol-1-yl)pyrimidin-2-ylamino)-1-methyl-1H-indol-3-yl)-2,2,2-trifluoroethanone]
[1]; [3]
  IC50: 132 nM

## CCn1cc(C(=O)C2CC2)c2cc(Nc3nccc(-n4cc(CN5C[C@H](O)CO5)c(C5CC5)n4)n3)ccc21 [Compound 25, (S)-cyclopropyl(5-(4-(3-cyclopropyl-4-((4-hydroxyisoxazolidin-2-yl)methyl)-1H-pyrazol-1-yl)pyrimidin-2-ylamino)-1-ethyl-1H-indol-3-yl)methanone]
[1]; [3]
  IC50: 5.85 nM
[2]
  IC50: 465 nM

## Cc1nn(-c2ccnc(Nc3ccc4c(c3)c(C(=O)C(C)C)cn4C)n2)cc1CN1C[C@H](O)CO1 [Compound 2, (S)-1-(5-(4-(4-((4-hydroxyisoxazolidin-2-yl)methyl)-3-methyl-1H-pyrazol-1-yl)pyrimidin-2-ylamino)-1-methyl-1H-indol-3-yl)-2-methylpropan-1-one]
[1]; [3]
  IC50: 8.63 nM
[2]
  IC50: 67 nM

## CCOC(=O)n1cc(C(C)=O)c2cc(Nc3nccc(-n4cc(CN5C[C@H](O)CO5)c(C)n4)n3)ccc21 [Compound 5, (S)-ethyl 3-acetyl-5-(4-(4-((4-hydroxyisoxazolidin-2-yl)methyl)-3-methyl-1H-pyrazol-1-yl)pyrimidin-2-ylamino)-1H-indole-1-carboxylate]
[2]
  IC50: 293 nM

## CCn1cc(C(=O)C2CC2)c2cc(Nc3ncc(C)c(-n4cc(CN5C[C@H](O)CO5)c(C)n4)n3)ccc21 [Compound 22, (S)-cyclopropyl(1-ethyl-5-(4-(4-((4-hydroxyisoxazolidin-2-yl)methyl)-3-methyl-1H-pyrazol-1-yl)-5-methylpyrimidin-2-ylamino)-1H-indol-3-yl)methanone]
[1]; [3]
  IC50: 79.3 nM

## (S)-cyclopropyl(1-ethyl-5-(5-fluoro-4-(3-((4-hydroxyisoxazolidin-2-yl)methyl)-4-methyl-1H-pyrrol-1-yl)pyrimidin-2-ylamino)-1H-indol-3-yl)methanone [Compound 21]
[1]; [3]
  IC50: 230 nM

## O=C(c1cn(CC(F)(F)F)c2ccc(Nc3nccc(-n4cc(CN5C[C@H](O)CO5)cn4)n3)cc12)C1CC1 [Compound 34, (S)-cyclopropyl(5-(4-(4-((4-hydroxyisoxazolidin-2-yl)methyl)-1H-pyrazol-1-yl)pyrimidin-2-ylamino)-1-(2,2,2-trifluoroethyl)-1H-indol-3-yl)methanone]
[1]; [3]
  IC50: 5.8 nM
[2]
  IC50: 55 nM

## CC(=O)c1cn(C)c2ccc(Nc3nccc(-n4cc(CN5C[C@H](O)CO5)c(C)n4)n3)cc12 [Compound 9, (S)-1-(5-(4-(4-((4-hydroxyisoxazolidin-2-yl)methyl)-3-methyl-1H-pyrazol-1-yl)pyrimidin-2-ylamino)-1-methyl-1H-indol-3-yl)ethanone]
[1]; [3]
  IC50: 13.3 nM
[2]
  IC50: 229 nM

## Cc1nn(-c2ccnc(Nc3ccc4c(c3)c(C(=O)C3CC3)cn4CC(F)(F)F)n2)cc1CN1CC(C)(O)CO1 (stereo not shown) [Compound 16, cyclopropyl(5-(4-(4-((4-hydroxy-4-methylisoxazolidin-2-yl)methyl)-3-methyl-1H-pyrazol-1-yl)pyrimidin-2-ylamino)-1-(2,2,2-trifluoroethyl)-1H-indol-3-yl)methanone]
[1]; [3]
  IC50: 14.2 nM
[2]
  IC50: 226 nM

## Cc1nn(-c2ccnc(Nc3ccc4c(c3)c(C(=O)C3CC3)cn4C(C)C)n2)cc1CN1C[C@H](O)CO1 [Compound 8, (S)-cyclopropyl(5-(4-(4-((4-hydroxyisoxazolidin-2-yl)methyl)-3-methyl-1H-pyrazol-1-yl)pyrimidin-2-ylamino)-1-isopropyl-1H-indol-3-yl)methanone]
[1]; [3]
  IC50: 7.37 nM
[2]
  IC50: 97 nM

## Cc1nn(-c2ccnc(Nc3ccc4c(c3)c(C(=O)C(F)(F)F)cn4C)n2)cc1CN1C[C@H](O)CO1 [Compound 3, (S)-2,2,2-trifluoro-1-(5-(4-(4-((4-hydroxyisoxazolidin-2-yl)methyl)-3-methyl-1H-pyrazol-1-yl)pyrimidin-2-ylamino)-1-methyl-1H-indol-3-yl)ethanone]
[1]; [3]
  IC50: 2.82 nM
[2]
  IC50: 48 nM

## Cc1nn(-c2ccnc(Nc3ccc4c(c3)c(C(=O)C3CC3)cn4S(C)(=O)=O)n2)cc1CN1C[C@H](O)CO1 [Compound 27, (S)-cyclopropyl(5-(4-(4-((4-hydroxyisoxazolidin-2-yl)methyl)-3-methyl-1H-pyrazol-1-yl)pyrimidin-2-ylamino)-1-(methylsulfonyl)-1H-indol-3-yl)methanone]
[1]; [3]
  IC50: 5.89 nM
[2]
  IC50: 43 nM

## Cc1nn(-c2ccnc(Nc3ccc4c(c3)c(C(=O)C(F)F)cn4C)n2)cc1CN1C[C@H](O)CO1 [Compound 4, (S)-2,2-difluoro-1-(5-(4-(4-((4-hydroxyisoxazolidin-2-yl)methyl)-3-methyl-1H-pyrazol-1-yl)pyrimidin-2-ylamino)-1-methyl-1H-indol-3-yl)ethanone]
[1]; [3]
  IC50: 9.42 nM
[2]
  IC50: 45 nM

## Cc1cnc(Nc2ccc3c(c2)c(C(=O)C(F)(F)F)cn3C)nc1-n1cc(CN2C[C@H](O)CO2)c(C)n1 [Compound 18, (S)-2,2,2-trifluoro-1-(5-(4-(4-((4-hydroxyisoxazolidin-2-yl)methyl)-3-methyl-1H-pyrazol-1-yl)-5-methylpyrimidin-2-ylamino)-1-methyl-1H-indol-3-yl)ethanone]
[1]; [3]
  IC50: 159 nM

## Cc1nn(-c2ccnc(Nc3ccc4[nH]cc(C(=O)C(F)(F)F)c4c3)n2)cc1CN1C[C@H](O)CO1 [Compound 7, (S)-2,2,2-trifluoro-1-(5-(4-(4-((4-hydroxyisoxazolidin-2-yl)methyl)-3-methyl-1H-pyrazol-1-yl)pyrimidin-2-ylamino)-1H-indol-3-yl)ethanone]
[1]; [3]
  IC50: 8.28 nM
[2]
  IC50: 60 nM

## Cc1nn(-c2ccnc(Nc3ccc4c(c3)c(Cl)c(C)n4C)n2)cc1CN1C[C@H](O)CO1 [Compound 31, (S)-2-((1-(2-(3-chloro-1,2-dimethyl-1H-indol-5-ylamino)pyrimidin-4-yl)-3-methyl-1H-pyrazol-4-yl)methyl)isoxazolidin-4-ol]
[2]
  IC50: 197 nM

## Cc1nn(-c2ccnc(Nc3ccc4c(c3)c(C(=O)C3CC3)cn4C)n2)cc1CN1CC(C)(O)CCO1 (stereo not shown) [Compound 28]
[1]; [3]
  IC50: 106 nM

## CCn1cc(C(=O)C2CC2)c2cc(Nc3nccc(-n4cc(C)c(CN5C[C@H](O)CO5)c4)n3)ccc21 [Compound 29, (S)-cyclopropyl(1-ethyl-5-(4-(3-((4-hydroxyisoxazolidin-2-yl)methyl)-4-methyl-1H-pyrrol-1-yl)pyrimidin-2-ylamino)-1H-indol-3-yl)methanone]
[1]
  IC50: 69.5 nM
[2]
  IC50: 70 nM

## CCn1cc(C(=O)C2CC2)c2cc(Nc3ncc(F)c(-n4cc(CN5C[C@H](O)CO5)c(C)n4)n3)ccc21 [Compound 20, (S)-cyclopropyl(1-ethyl-5-(5-fluoro-4-(4-((4-hydroxyisoxazolidin-2-yl)methyl)-3-methyl-1H-pyrazol-1-yl)pyrimidin-2-ylamino)-1H-indol-3-yl)methanone]
[1]; [3]
  IC50: 66.2 nM

## Cc1nn(-c2ccnc(Nc3ccc4c(c3)c(C(=O)C(F)F)cn4C)n2)cc1CN1C[C@@H](O)CO1 [Compound 10, (R)-2,2-difluoro-1-(5-(4-(4-((4-hydroxyisoxazolidin-2-yl)methyl)-3-methyl-1H-pyrazol-1-yl)pyrimidin-2-ylamino)-1-methyl-1H-indol-3-yl)ethanone]
[1]; [3]
  IC50: 24.4 nM
